Measured values from PubChem BioAssay AID256 (DTP/NCI, 2004).
Where “and” joins values, the source holds several entries; their conditions need not be identical. Identical values can stand only once. Inconclusive results and toxic doses are left out. The calls were made as follows: active = survival T/C of 150% or more; inactive = T/C below 125% in these data.

Test system: CD2F1 mice, L1210 leukemia ip, survival T/C
Experiment: NCI In Vivo Anticancer Drug Screen. Data for tumor model L1210 Leukemia (intraperitoneal) in CD2F1 (CDF1) mice
Details: higher = longer survival
How it was run: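 Compound-dosed mice with transplantable tumor versus matched vehicle controls; endpoint ratio T/C reported.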

[1] = endpoint: mean survival time, dose: 100.0 mg/kg/injection, schedule: Q04DX003 (ip), vehicle: saline
[2] = endpoint: mean survival time, dose: 25.0 mg/kg/injection, schedule: Q01DX009 (ip), vehicle: saline with Tween-80
[3] = endpoint: mean survival time, dose: 50.0 mg/kg/injection, schedule: Q01DX009 (ip), vehicle: saline with Tween-80
[4] = endpoint: mean survival time, dose: 100.0 mg/kg/injection, schedule: Q01DX009 (ip), vehicle: saline with Tween-80
[5] = endpoint: mean survival time, dose: 200.0 mg/kg/injection, schedule: Q01DX009 (ip), vehicle: saline with Tween-80
[6] = endpoint: mean survival time, dose: 100.0 mg/kg/injection, schedule: Q04DX003 (ip), vehicle: saline with Tween-80
[7] = endpoint: mean survival time, dose: 200.0 mg/kg/injection, schedule: Q04DX003 (ip), vehicle: saline with Tween-80
[8] = endpoint: mean survival time, dose: 400.0 mg/kg/injection, schedule: Q01DX009 (ip), vehicle: saline with Tween-80
[9] = endpoint: mean survival time, dose: 400.0 mg/kg/injection, schedule: Q04DX003 (ip), vehicle: saline with Tween-80
[10] = endpoint: mean survival time, dose: 100.0 mg/kg/injection, schedule: Q04DX002 (ip), vehicle: saline with Tween-80
[11] = endpoint: mean survival time, dose: 200.0 mg/kg/injection, schedule: Q04DX002 (ip), vehicle: saline with Tween-80
[12] = endpoint: mean survival time, dose: 100.0 mg/kg/injection, schedule: Q01DX001 (ip), vehicle: saline with Tween-80
[13] = endpoint: mean survival time, dose: 200.0 mg/kg/injection, schedule: Q01DX001 (ip), vehicle: saline with Tween-80
[14] = endpoint: mean survival time, dose: 400.0 mg/kg/injection, schedule: Q01DX001 (ip), vehicle: saline with Tween-80

Measured: T/C

CCN=c1cc2oc3cc(NCC)c(C)cc3c(-c3ccccc3C(=O)OCC)c-2cc1C
inactive: endpoint: mean survival time, dose: 2.5 mg/kg/injection, schedule: Q04DX003 (ip), vehicle: saline 101 % of control | endpoint: mean survival time, dose: 5.0 mg/kg/injection, schedule: Q04DX003 (ip), vehicle: saline 109 % of control | endpoint: mean survival time, dose: 10.0 mg/kg/injection, schedule: Q04DX003 (ip), vehicle: saline 90 % of control and 102 % of control

COC(=O)C12CCC1(Cl)CC2 (stereo unspecified)
inactive: [1] 98 % of control | endpoint: mean survival time, dose: 200.0 mg/kg/injection, schedule: Q04DX003 (ip), vehicle: saline 93 % of control | endpoint: mean survival time, dose: 400.0 mg/kg/injection, schedule: Q04DX003 (ip), vehicle: saline 96 % of control

O=C(O)c1ccc([N+](=O)[O-])cc1P(=O)(O)O
inactive: endpoint: mean survival time, dose: 18.75 mg/kg/injection, schedule: Q01DX009 (ip), vehicle: saline 98 % of control | endpoint: mean survival time, dose: 37.5 mg/kg/injection, schedule: Q01DX009 (ip), vehicle: saline 98 % of control | endpoint: mean survival time, dose: 75.0 mg/kg/injection, schedule: Q01DX009 (ip), vehicle: saline 95 % of control

CCCCCCCCCCCCCCCCCC[N+]1(Cc2ccccc2)CCOCC1
inactive: [2] 103 % of control | [3] 115 % of control | [4] 91 % of control and 100 % of control

CCOC(=O)c1ccc2c(c1)Cc1cc([N+](=O)[O-])ccc1-2
inactive: endpoint: mean survival time, dose: 100.0 mg/kg/injection, schedule: Q01DX001 (ip), vehicle: carboxymethylcellulose (CMC) 98 % of control | endpoint: mean survival time, dose: 200.0 mg/kg/injection, schedule: Q01DX001 (ip), vehicle: carboxymethylcellulose (CMC) 95 % of control | endpoint: mean survival time, dose: 400.0 mg/kg/injection, schedule: Q01DX001 (ip), vehicle: carboxymethylcellulose (CMC) 95 % of control

CCN(CC)c1nc(N(CC)CC)nc(N(CC)CC)n1
inactive: [2] 93 % of control | [3] 93 % of control | [4] 95 % of control | [5] 93 % of control

CC(=O)C(CCN(C)C)(c1ccccc1)c1ccccc1
inactive: endpoint: mean survival time, dose: 75.0 mg/kg/injection, schedule: Q01DX001 (ip), vehicle: saline 102 % of control | endpoint: mean survival time, dose: 150.0 mg/kg/injection, schedule: Q01DX001 (ip), vehicle: saline 91 % of control

Cc1ccc(S(=O)(=O)N2CCC(=O)c3ccccc32)cc1
inactive: [4] 95 % of control | [6] 101 % of control | [5] 97 % of control | [7] 98 % of control | [8] 95 % of control | [9] 103 % of control

CSc1nc(SC)c2cnn(C3OC(CO)C(O)C3O)c2n1 (stereo unspecified)
inactive: endpoint: median survival time, dose: 3.12 mg/kg/injection, schedule: Q01DX005 (ip), vehicle: saline with Tween-80 95 % of control | endpoint: median survival time, dose: 6.25 mg/kg/injection, schedule: Q01DX005 (ip), vehicle: saline with Tween-80 100 % of control | endpoint: median survival time, dose: 12.5 mg/kg/injection, schedule: Q01DX005 (ip), vehicle: saline with Tween-80 102 % of control and 103 % of control | endpoint: median survival time, dose: 25.0 mg/kg/injection, schedule: Q01DX005 (ip), vehicle: saline with Tween-80 102 % of control and 101 % of control and 97 % of control | endpoint: median survival time, dose: 50.0 mg/kg/injection, schedule: Q01DX005 (ip), vehicle: saline with Tween-80 102 % of control and 101 % of control and 97 % of control | endpoint: median survival time, dose: 100.0 mg/kg/injection, schedule: Q01DX005 (ip), vehicle: saline with Tween-80 102 % of control and 95 % of control | endpoint: median survival time, dose: 200.0 mg/kg/injection, schedule: Q01DX005 (ip), vehicle: saline with Tween-80 93 % of control and 95 % of control

CCOc1nc(-c2ccccc2)nc(N)c1Cl
inactive: [10] 98 % of control | [11] 98 % of control | endpoint: mean survival time, dose: 400.0 mg/kg/injection, schedule: Q04DX002 (ip), vehicle: saline with Tween-80 98 % of control

O=c1cc(-c2ccccc2)[nH]c2c1CCCC2
inactive: endpoint: median survival time, dose: 12.5 mg/kg/injection, schedule: Q01DX009 (ip), vehicle: saline with Tween-80 102 % of control | endpoint: median survival time, dose: 25.0 mg/kg/injection, schedule: Q01DX009 (ip), vehicle: saline with Tween-80 105 % of control | endpoint: median survival time, dose: 50.0 mg/kg/injection, schedule: Q01DX009 (ip), vehicle: saline with Tween-80 103 % of control and 108 % of control and 109 % of control | endpoint: median survival time, dose: 100.0 mg/kg/injection, schedule: Q01DX009 (ip), vehicle: saline with Tween-80 115 % of control and 116 % of control and 105 % of control | endpoint: median survival time, dose: 200.0 mg/kg/injection, schedule: Q01DX009 (ip), vehicle: saline with Tween-80 117 % of control and 120 % of control | endpoint: median survival time, dose: 400.0 mg/kg/injection, schedule: Q01DX009 (ip), vehicle: saline with Tween-80 90 % of control and 103 % of control

O=C(NNC(=O)OCC(Cl)(Cl)Cl)OCC(Cl)(Cl)Cl
inactive: [6] 102 % of control

Cc1cc2nc(C(=C(c3nc4cc(C)c(C)cc4[nH]3)c3nc4cc(C)c(C)cc4[nH]3)c3nc4cc(C)c(C)cc4[nH]3)[nH]c2cc1C
inactive: [6] 97 % of control | [7] 94 % of control | [9] 89 % of control

Cc1cccc(/C=C2\Cc3ccccc3C2=O)c1
inactive: [12] 103 % of control | [13] 95 % of control | [14] 103 % of control

OC(CN=C/C=C/c1ccccc1)c1ccccc1 (stereo unspecified)
inactive: [6] 95 % of control | [7] 89 % of control | [9] 92 % of control

N#CCN(CC#N)CC#N
inactive: endpoint: mean survival time, dose: 1.56 mg/kg/injection, schedule: Q01DX009 (ip), vehicle: saline 97 % of control | endpoint: mean survival time, dose: 3.13 mg/kg/injection, schedule: Q01DX009 (ip), vehicle: saline 92 % of control | endpoint: mean survival time, dose: 6.25 mg/kg/injection, schedule: Q01DX009 (ip), vehicle: saline 100 % of control

Oc1c(CN2CCOCC2)cc(CN2CCOCC2)cc1CN1CCOCC1
inactive: [4] 100 % of control | [5] 95 % of control | [8] 100 % of control

CC12CCC3C(CCC(CC(=O)O)C3(C)CC(=O)O)C1CCC2=O (stereo unspecified)
inactive: [12] 98 % of control | [13] 97 % of control | [14] 97 % of control

Cc1ccc(S(=O)(=O)OCC2OCOC(C(O)CO)C2O)cc1 (stereo unspecified)
inactive: endpoint: mean survival time, dose: 50.0 mg/kg/injection, schedule: Q01DX009 (ip), vehicle: Klucel (hydroxypropylcellulose) (HPC) 101 % of control | endpoint: mean survival time, dose: 100.0 mg/kg/injection, schedule: Q01DX009 (ip), vehicle: Klucel (hydroxypropylcellulose) (HPC) 97 % of control | endpoint: mean survival time, dose: 200.0 mg/kg/injection, schedule: Q01DX009 (ip), vehicle: Klucel (hydroxypropylcellulose) (HPC) 97 % of control

O=[N+]([O-])c1ccc2c(c1)S(=O)c1cc([N+](=O)[O-])c(Br)cc1-2 (stereo unspecified) (tested in a mixture with another compound)
inactive: endpoint: mean survival time, dose: 50.0 mg/kg/injection, schedule: Q04DX002 (ip), vehicle: saline with Tween-80 108 % of control | [10] 108 % of control | [11] 102 % of control

CN(C)/C=N/N1C(=O)CSC1=S
inactive: endpoint: mean survival time, dose: 25.0 mg/kg/injection, schedule: Q04DX003 (ip), vehicle: saline 107 % of control | endpoint: mean survival time, dose: 50.0 mg/kg/injection, schedule: Q04DX003 (ip), vehicle: saline 103 % of control | [1] 101 % of control and 103 % of control

CC(N)(C(=O)O)c1ccccc1 (stereo unspecified)
inactive: endpoint: mean survival time, dose: 100.0 mg/kg/injection, schedule: Q01DX001 (ip), vehicle: other 92 % of control and 96 % of control | endpoint: mean survival time, dose: 200.0 mg/kg/injection, schedule: Q01DX001 (ip), vehicle: other 100 % of control and 102 % of control | endpoint: mean survival time, dose: 400.0 mg/kg/injection, schedule: Q01DX001 (ip), vehicle: other 96 % of control and 94 % of control

CC1=C/C(O)CC(=O)Cc2nc(co2)C(=O)N2CCC=C2C(=O)OC(C(C)C)C(C)/C=C\C(=O)NC/C=C\1 (stereo unspecified)
inactive: endpoint: mean survival time, dose: 1.0 micrograms/kg/injection, schedule: Q01DX009 (ip), vehicle: Klucel (hydroxypropylcellulose) (HPC) 98 % of control | endpoint: mean survival time, dose: 2.0 micrograms/kg/injection, schedule: Q01DX009 (ip), vehicle: Klucel (hydroxypropylcellulose) (HPC) 101 % of control | endpoint: mean survival time, dose: 4.0 micrograms/kg/injection, schedule: Q01DX009 (ip), vehicle: Klucel (hydroxypropylcellulose) (HPC) 97 % of control | endpoint: mean survival time, dose: 8.0 micrograms/kg/injection, schedule: Q01DX009 (ip), vehicle: Klucel (hydroxypropylcellulose) (HPC) 92 % of control | endpoint: median survival time, dose: 25.0 mg/kg/injection, schedule: Q01DX009 (ip), vehicle: Klucel (hydroxypropylcellulose) (HPC) 98 % of control | endpoint: median survival time, dose: 50.0 mg/kg/injection, schedule: Q01DX009 (ip), vehicle: Klucel (hydroxypropylcellulose) (HPC) 106 % of control | endpoint: median survival time, dose: 100.0 mg/kg/injection, schedule: Q01DX009 (ip), vehicle: Klucel (hydroxypropylcellulose) (HPC) 105 % of control | endpoint: median survival time, dose: 200.0 mg/kg/injection, schedule: Q01DX009 (ip), vehicle: Klucel (hydroxypropylcellulose) (HPC) 104 % of control

O=C1C=C(N2CC2)C(=O)C=C1N1CC1
inactive: endpoint: mean survival time, dose: 0.12 mg/kg/injection, schedule: Q01DX Z (ip), vehicle: saline 120 % of control and 103 % of control | endpoint: mean survival time, dose: 0.25 mg/kg/injection, schedule: Q01DX Z (ip), vehicle: saline 119 % of control | endpoint: mean survival time, dose: 0.5 mg/kg/injection, schedule: Q01DX Z (ip), vehicle: saline 120 % of control | endpoint: mean survival time, dose: 1.0 mg/kg/injection, schedule: Q01DX Z (ip), vehicle: saline 91 % of control
